Measured values as given in patent US20070026478A1, “Hemiasterlin affinity probes and their uses” (WYETH, priority 2002, published 2007).
Where two headings read alike, the source gives them in different places.

Assays:
bovine brain tubulin = target: T1, bovine brain tubulin (Bos taurus, UniProt P81947+Q6B856); assay: Reversible binding affinity assay (tubulin fluorescence)
T1 construct: MAP-rich bovine brain tubulin (99% purity), Hela cell tubulin (90% purity); purchased Cytoskeleton (Denver, Colo.); host or cells: bovine brain
Experimental: The affinity of both HTI-286 and of non-radiolabled Probe 1 and Probe 2, to bovine brain tubulin was determined by previously published methods (Krishnamurthy et al., Biochem., submitted). Briefly, 5 mg/mL […] tubulin prepared in PEM buffer was pre-incubated with buffer or varying concentrations of test agents in individual quartz cuvettes. The intrinsic tryptophan fluorescence of tubulin (excitation at 560 nm and maximal emission at 580 nm) was measured after pre-incubation for 90 minutes. The change in fluorescence intensity at 580 nm in the presence of compound was fitted to a quadratic equation to obtain apparent dissociation constants (KD) of the test agents.

α-tubulin = target: T2, α-tubulin (Bos taurus, UniProt P81947); assay: Subtilisin digestion of tubulin before or after labeling with Probe 1; type: biochemical, bovine
T2 construct: MAP-rich bovine brain tubulin (99% purity), Hela cell tubulin (90% purity); purchased Cytoskeleton (Denver, Colo.); host or cells: bovine brain
Experimental: FIGS. 6A-6C provide data for the digestion of tubulin by subtilisin before or after photoaffinity labeling with Probe 1. FIG. 6A diagrams the predicted subtilisin cleavage site and cleavage products for α-tubulin. FIG. 6B provides Coomassie staining (top) and fluorographic (bottom) images of fragments photolabeled with Probe 1 and exposed to subtilisin as follows: Tubulin (5 μg) was incubed without (Lanes 1 and 4) or with 0.2 μg subtilisin for 60 minutes at 30° C. and then photolabeled with 0.25 μM [^3H]-Probe 1 (Lane 2) according to conditions specified in Section 6.1.11. Alternatively, photolabeling was done before subtilisin digestions (Lane 3). In both cases samples were then separated by SDS-PAGE. […] Again, samples were separated by SDS-PAGE.
Before or after incubating with 0.25 μM (0.36 μCi) [^3H]-Probe 1 for 30 minutes at room temperature and irradiating as described in Section 7.1.5, tubulin (5 μg) was digested under native conditions with subtilisin (0.2 μg) for 60 minutes at 30° C. Enzymatic digestions were stopped with 1 mM PMSF. After both digestion and labeling, samples were resolved by SDS-PAGE under conditions that allowed separation of α- and β-tubulin subunits. Gels were then fixed and stained with Coomassie blue from BioRad (Hercules, Calif.) and subjected to fluorography.

T2 sequence (P81947 whole entry): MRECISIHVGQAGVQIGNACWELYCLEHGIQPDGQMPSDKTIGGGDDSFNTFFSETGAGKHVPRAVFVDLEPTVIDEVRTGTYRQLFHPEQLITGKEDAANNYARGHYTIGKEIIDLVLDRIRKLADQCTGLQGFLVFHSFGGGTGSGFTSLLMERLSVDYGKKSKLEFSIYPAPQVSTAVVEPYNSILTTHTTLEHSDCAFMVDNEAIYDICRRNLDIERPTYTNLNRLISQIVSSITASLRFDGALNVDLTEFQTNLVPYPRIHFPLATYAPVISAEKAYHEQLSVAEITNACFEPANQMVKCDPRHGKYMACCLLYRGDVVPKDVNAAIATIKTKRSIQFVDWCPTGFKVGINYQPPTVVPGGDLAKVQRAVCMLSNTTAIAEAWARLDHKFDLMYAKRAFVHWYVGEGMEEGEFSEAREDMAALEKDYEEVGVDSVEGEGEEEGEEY
T2 sequence (Q6B856 whole entry partner): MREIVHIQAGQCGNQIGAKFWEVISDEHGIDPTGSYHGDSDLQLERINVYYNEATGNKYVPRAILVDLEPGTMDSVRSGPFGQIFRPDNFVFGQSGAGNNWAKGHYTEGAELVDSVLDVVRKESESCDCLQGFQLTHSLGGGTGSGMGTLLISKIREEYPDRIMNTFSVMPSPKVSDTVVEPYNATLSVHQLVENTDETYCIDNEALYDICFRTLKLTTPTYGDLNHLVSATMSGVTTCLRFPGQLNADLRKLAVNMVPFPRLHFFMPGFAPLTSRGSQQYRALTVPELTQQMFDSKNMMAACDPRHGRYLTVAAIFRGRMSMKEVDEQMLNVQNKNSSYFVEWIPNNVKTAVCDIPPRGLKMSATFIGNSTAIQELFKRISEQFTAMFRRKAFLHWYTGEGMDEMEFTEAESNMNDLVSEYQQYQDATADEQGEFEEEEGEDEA
T1 sequence (P81947 whole entry): as the sequence (P81947 whole entry) above
T1 sequence (Q6B856 whole entry): as the sequence (Q6B856 whole entry partner) above

With CN[C@H](C(=O)N[C@H](C(=O)N(C)[C@H](/C=C(\C)C(=O)O)C(C)C)C(C)(C)C)C(C)(C)c1ccc(C(=O)c2ccccc2)cc1 [Probe 1, 4-benzoyl-N,β,β-trimethyl-L-phenylalanyl-N^1-[(1S,2E)-3-carboxy-1-isopropylbut-2-enyl]-N^1,3-dimethyl-L-valinamide] the Kd (bovine brain tubulin; Table 1, binding to bovine brain tubulin, read-out: KD) was 200 to 800 nM, the Kd (bovine brain tubulin; rhodamine-labeled tubulin, 90 minutes pre-incubation, read-out: apparent binding constant (KD), fluorescence method) was 500 nM and the “effect on subtilisin digestion of α-tubulin” value (α-tubulin; 0.25 μM radiolabeled) was “partially inhibits the digestion of α-tubulin”. For the same compound, the “effect on subtilisin digestion of α-tubulin” value (α-tubulin; 100 or 250 μM non-radiolabeled, β-tubulin is completely digested) was “completely blocks”.
